Reference: US11345701B1, “KRAS mutant protein inhibitors” (Jacobio Pharmaceuticals Co., Ltd., priority 2021, dated 2022)

Assay: Mouse pharmacokinetic study
Type: in vivo, Balb/c mouse
Experimental: The purpose of this study was to evaluate the pharmacokinetic properties of compounds in Balb/c mouse (♀) following single dose administration. The day before administration, mice were fasted overnight and free access to water. Six mice were needed for each compound and the six mice were divided into two groups (n=3/group), group A and group B. Mice in group A were treated with a single 3 mg/kg dose of compound (iv). Mice in group B were treated with a single 10 mg/kg dose of compound (po). For each mouse in group A, blood samples were collected at pre-dose, and at the time point of 0.083, 0.25, 0.5, 1, 2, 4, 6, 8 and 24 h post-dose. For each mouse in group B, blood samples were collected at pre-dose, and at the time point of 0.25, 0.5, 1, 2, 3, 4, 6, 8 and 24 h post-dose. Blood samples were placed on ice until centrifugation to obtain plasma samples. The plasma samples were stored at −80° C. until analysis. The concentration of compound in plasma samples was determined using a LC-MS/MS method.

[1] = Balb/c mouse (female), 3 mg/kg, iv
[2] = Balb/c mouse (female), 10 mg/kg, po

C=CC(=O)N1CCN(c2nc(=O)n(-c3c(C)ccnc3C(C)C)c3nc(-c4c(N)c(F)c(F)c(F)c4F)c(F)cc23)[C@@H](C)C1 (atropisomer, axis not shown; (M)) [Compound 2-1, (M)-4-((S)-4-acryloyl-2-methylpiperazin-1-yl)-7-(2-amino-3,4,5,6-tetrafluorophenyl)-6-fluoro-1-(2-isopropyl-4-methylpyridin-3-yl)pyrido[2,3-d]pyrimidin-2(1H)-one]
CL [1]: 38.9 mL/min/kg
Vss [1]: 1.28 L/kg
AUC0-24h [2]: 2618 ng·h/mL
Cmax [2]: 2440 ng/mL
Oral BA (F %) [2]: 58.9%
Pharmacokinetic properties in words (mouse model, 3 mg/kg iv and 10 mg/kg po): good pharmacokinetic properties
